Test system: Angiogenesis
Assay: Inhibition of angiogenesis by fatty acid samples
Assay type: cell-based
Excerpt: The phospholipid fatty acids usually include docosahexaenoic acid (DHA), arachidonic acid (AA), eicosapentaenoic acid (EPA), and others.

Question: `CCCCC/C=C\C/C=C\C/C=C\C/C=C\CCCC(=O)O` [Arachidonic, arachidonic acid] was tested. Which inhibition at 5 µg/mL (sample concentration 5 μg/ml) did it give?
Answer: 84%

Question: With `CC/C=C\C/C=C\C/C=C\C/C=C\C/C=C\C/C=C\CCC(=O)O` [Docosahexaenoic (DHA), docosahexaenoic acid] as the compound, how does the inhibition at 5 µg/mL (sample concentration 5 μg/ml) read?
Answer: 88%

Question: `CC/C=C\C/C=C\C/C=C\C/C=C\C/C=C\CCCCCC(=O)O` [Docosapentaenoic] was tested. Which “Inhibition of Angiogenesis” value (sample concentration 4 μg/ml) did it give?
Answer: 71%

Question: `CC/C=C\C/C=C\C/C=C\C/C=C\C/C=C\CCCC(=O)O` [Eicosapentaenoic (EPA), eicosapentaenoic acid] was tested. Which inhibition at 3 µg/mL (sample concentration 3 μg/ml) did it give?
Answer: 100%

Question: `CCCCCCCC/C=C\CCCCCCCCCCCC(=O)O` [Erucic] was tested. Which “Inhibition of Angiogenesis” value (sample concentration 200 μg/ml) did it give?
Answer: 30%

Question: `CCCCCCC=CCCCCCCCCC(=O)O` [Heptadecenoic] was tested. Which “Inhibition of Angiogenesis” value (sample concentration 20 μg/ml) did it give?
Answer: 83%

Question: Which “Inhibition of Angiogenesis” value (sample concentration 5 μg/ml) does the source give for `CCCCC/C=C\C/C=C\CCCCCCCC(=O)O` [Linoleic] here?
Answer: 82%

Question: With `CCCC/C=C\CCCCCCCC(=O)O` [Myristoleic] as the compound, how does the “Inhibition of Angiogenesis” value (sample concentration 10 μg/ml) read?
Answer: 58%

Question: Which “Inhibition of Angiogenesis” value (sample concentration 100 μg/ml) does the source give for `CCCCCCCC/C=C\CCCCCCCCCCCCCC(=O)O` [Nervonic] here?
Answer: 0%

Question: Which inhibition at 100 µg/mL (read-out: Inhibition of Angiogenesis) does the source give for `CCCCCCCC/C=C\CCCCCCCC(=O)O` [Oleic, oleic acid] here?
Answer: 0%

Question: Which “Inhibition of Angiogenesis” value (sample concentration 5 μg/ml) does the source give for `CCCCCC/C=C\CCCCCCCC(=O)O` [Palmitoleic] here?
Answer: 70%

Question: `CCCCCCCCCCC/C=C\CCCCC(=O)O` [Petroselenic] was tested. Which “Inhibition of Angiogenesis” value (sample concentration 100 μg/ml) did it give?
Answer: 58%

Question: Which “Inhibition of Angiogenesis” value (sample concentration 20 μg/ml) does the source give for `CC/C=C\C/C=C\C/C=C\CCCCCCCC(=O)O` [α-Linolenic] here?
Answer: 66%
